Like-named read-outs stand apart in the source and are kept apart here.
Experiments:
cetuximab [1] = assay: Surface plasmon resonance (Biacore T100) binding kinetics of meditope variants to immobilised cetuximab IgG; details: 25°C; for k a / k d: pH 7.4, HBS-EP+
Procedure: All surface plasmon resonance (SPR) experiments were performed on a GE Biacore T100 instrument (GE Healthcare) at 25°C as described previously (Bzymek, Avery et al., 2016[▸]; Bzymek, Ma et al., 2016[▸]). Briefly, cetuximab IgG ligand was amine-coupled to CM5 chips using acetate buffer pH 5.5 at a density of 5000 RU. Analytes were prepared in GE buffer HBS-EP+ [10 mM HEPES pH 7.4, 150 mM NaCl, 3 mM EDTA, 0.05%(v/v) surfactant P20]. Kinetics experiments were carried out at a flow rate of 30 µl min^−1 using HBS-EP+ as both the running and regeneration buffer. Experimental data were processed using Biacore T100 Evaluation software v.2.0.1. Purified peptides were dissolved in water and extensively dialyzed to remove any residual TFA, and their concentration was determined as described previously (Bzymek, Ma et al., 2016[▸]).

cetuximab [2] = assay: as above; details: SPR, 25°C, at pH 5.5
cetuximab [3] = test system: cetuximab; parameters: method as in Bzymek, Ma et al. (2016); details: SPR, 25°C, pH 7.4; ref Bzymek, Ma et al. (2016); cited from earlier work

Row | Molecule | k a (cetuximab [1]; SPR) | k d (cetuximab [1]; SPR) | also measured
1 | CC(C)C[C@@H]1NC(=O)[C@H](CCCNC(=N)N)NC(=O)[C@H](CCCNC(=N)N)NC(=O)[C@H]([C@@H](C)O)NC(=O)[C@H](CO)NC(=O)[C@H](CC(C)C)NC(=O)[C@H](CC(=O)O)NC(=O)[C@H](Cc2ccccc2)NC(=O)[C@H](CCC(N)=O)NC(=O)CCCCCCNC(=O)[C@H](CCCCN)NC1=O [reference compound] | 2.5 M^−1 s^−1 × 10^4 | 0.046 s⁻¹ | k a (on-rate) (cetuximab [1]; SPR, pH 7.4): 25000 M⁻¹ s⁻¹; k a (cetuximab [2]): 2.0 M^−1 s^−1 × 10^4; k d (cetuximab [2]): 0.075 s⁻¹
2 | CC(C)C[C@@H]1NC(=O)[C@H](CCCNC(=N)N)NC(=O)[C@H](CCCNC(=N)NCCCN)NC(=O)[C@H]([C@@H](C)O)NC(=O)[C@H](CO)NC(=O)[C@H](CC(C)C)NC(=O)[C@H](CC(=O)O)NC(=O)[C@H](Cc2ccccc2)NC(=O)[C@H](CCC(N)=O)NC(=O)CCCCCCNC(=O)[C@H](CCCCN)NC1=O [(AHA)QFDLSTR(PrNH2)RLK, aminoheptanoic acid-linked N-(3-aminopropyl)-L-arginine meditope variant] | 1.2 M^−1 s^−1 × 10^4 | 0.110 s⁻¹ | –
3 | CC(C)C[C@@H]1NC(=O)[C@H](CCCNC(=N)N)NC(=O)[C@H](CCCNC(=N)NCCC(=O)O)NC(=O)[C@H]([C@@H](C)O)NC(=O)[C@H](CO)NC(=O)[C@H](CC(C)C)NC(=O)[C@H](CC(=O)O)NC(=O)[C@H](Cc2ccccc2)NC(=O)[C@H](CCC(N)=O)NC(=O)CCCCCCNC(=O)[C@H](CCCCN)NC1=O [(AHA)QFDLSTR(EtCOOH)RLK, aminoheptanoic acid-linked N-carboxyethylarginine meditope variant] | – | – | Kd (cetuximab [2]): 32 µM; k a (cetuximab [2]): 0.06 M^−1 s^−1 × 10^4; k d (cetuximab [2]): 0.020 s⁻¹
4 | CQFDLSTRRLKC | – | – | k a (cetuximab [3]): 8.8 M^−1 s^−1 × 10^4
5 | CC(C)C[C@@H]1NC(=O)[C@H](CCCNC(=N)N)NC(=O)[C@H](CCCNC(=N)NCCCO)NC(=O)[C@H]([C@@H](C)O)NC(=O)[C@H](CO)NC(=O)[C@H](CC(C)C)NC(=O)[C@H](CC(=O)O)NC(=O)[C@H](Cc2ccccc2)NC(=O)[C@H](CCC(N)=O)NC(=O)CCCCCCNC(=O)[C@H](CCCCN)NC1=O [(AHA)QFDLSTR(PrOH)RLK, aminoheptanoic acid-linked N-(3-hydroxypropyl)-L-arginine meditope variant] | 1.2 M^−1 s^−1 × 10^4 | 0.027 s⁻¹ | increase in the half-life of the complex over the nonmodified AHA-cyclized meditope (cetuximab [1]; t = ln(2)/k d, HBS-EP+ pH 7.4): 1.7 fold

Further lines, with some results ahead:

Row | k a (cetuximab [1]; SPR) | k d (cetuximab [1]; SPR) | Molecule | also measured
6 | 2.2 M^−1 s^−1 × 10^4 | 0.060 s⁻¹ | CCCCNC(=N)NCCC[C@@H]1NC(=O)[C@H]([C@@H](C)O)NC(=O)[C@H](CO)NC(=O)[C@H](CC(C)C)NC(=O)[C@H](CC(=O)O)NC(=O)[C@H](Cc2ccccc2)NC(=O)[C@H](CCC(N)=O)NC(=O)CCCCCCNC(=O)[C@H](CCCCN)NC(=O)[C@H](CC(C)C)NC(=O)[C@H](CCCNC(=N)N)NC1=O [(AHA)QFDLSTR(nBu)RLK, aminoheptanoic acid-linked n-butylarginine meditope variant] | change of half-life of the complex versus nonmodified AHA-cyclized meditope (in words) (cetuximab [1]; t = ln(2)/k d, HBS-EP+ pH 7.4): slightly reduced
7 | 0.93 M^−1 s^−1 × 10^4 | 0.079 s⁻¹ | CCCCCCCCNC(=N)NCCC[C@@H]1NC(=O)[C@H]([C@@H](C)O)NC(=O)[C@H](CO)NC(=O)[C@H](CC(C)C)NC(=O)[C@H](CC(=O)O)NC(=O)[C@H](Cc2ccccc2)NC(=O)[C@H](CCC(N)=O)NC(=O)CCCCCCNC(=O)[C@H](CCCCN)NC(=O)[C@H](CC(C)C)NC(=O)[C@H](CCCNC(=N)N)NC1=O [(AHA)QFDLSTR(nOc)RLK, aminoheptanoic acid-linked n-octylarginine meditope variant] | change of half-life of the complex versus nonmodified AHA-cyclized meditope (in words) (cetuximab [1]; t = ln(2)/k d, HBS-EP+ pH 7.4): slightly reduced

Reference: article PMC5713674, “Meditope–Fab interaction: threading the hole” (Acta Crystallographica. Section F, Structural Biology …, 2017)
